The values that follow are results of earlier work, collected in patent publication US12440459B2, “Norepinephrine compositions and methods therefor” (Nevakar Injectables Inc., priority 2017, dated 2025).

For the data set the following is noted: Int J Toxicol. 2002; 21 Suppl 2:19-94.

As for `COc1ccc(O)c(C(C)(C)C)c1` [butylated hydroxyl anisole], the “renal and hepatic damage” value was “some renal and hepatic damage”.
